According to article PMC6017025, “Pharmacokinetics of Schizandrin and Its Pharmaceutical Products Assessed Using a Validated LC–MS/MS Method” (Molecules : A Journal of Synthetic Chemistry and Natural …, 2018):
Like-named read-outs stand apart in the source and are kept apart here.

Key:
[1] = Stability of schizandrin in rat plasma (method validation); type: in vitro ADME; conditions: for Autosampler Stability / Short-Term Stability / Freeze-Thaw Stability / Long-Term Stability: rat plasma, in % (unit assumed); for Autosampler Stability: 10 °C for 24 h in autosampler; for Short-Term Stability: room temperature for 12 h; for Long-Term Stability: −20 °C for 1 month
Description: (§1) Three concentrations (low, medium, and high) were evaluated for stability. The schizandrin concentrations of 5, 50, and 500 ng/mL were used in the method validation.
Stability was evaluated under four conditions: […]; […]; long-term stability kept at −80 °C for 1 month; and freeze-thaw stability: three samples were frozen and stored at −20 °C for 24 h and then thawed at room temperature. After repeating this cycle three times, the samples were analyzed by UHPLC-MS/MS.

[2] = Stability of schizandrin stock solution; type: physicochemical; conditions: up to 1 month at −20 °C
Description: as §1

[3] = Pharmacokinetics of schizandrin in plasma of freely moving rats after i.v./oral schizandrin or oral S. chinensis product (LC-MS/MS, noncompartmental analysis); type: in vivo, rat
Description: All experimental protocols involving animals were reviewed and approved by the Institutional Animal Care and Use Committee (IACUC number: 1060813) of National Yang-Ming University. Male Sprague-Dawley rats were obtained from the Laboratory Animal Center of the National Yang-Ming University, Taipei, Taiwan. The animals had free access to food (laboratory rodent diet 5P14, PMI Feeds, Richmond, IN) and water. Six Sprague-Dawley rats (220–240 g) were anesthetized with pentobarbital (50 mg/kg, i.p.) for cannulation. Surgical sites were shaved and disinfected with 70% ethanol solution, and a polyethylene tube (PE50) was implanted into the right jugular vein for collecting blood samples. The cannula were exteriorized and fixed in the dorsal region of the neck. Patency of the tube was maintained by flushing with heparinized saline (20 IU/mL). Rats were allowed to recover 24 h prior to drug administration. Schizandrin was dissolved in 10%DMSO and triply deionized water and administered by gastric gavage at a dose of 10 mg/kg. Schizandrin was dissolved in 10%ethanoland triply deionized water and administered by intravenous injection at a dose of 10 mg/kg. The S. chinensis pharmaceutical product was dissolved in triply deionized water and administered by gastric gavage at a dose of 3 g/kg and 10 g/kg (equivalent to 5.2 mg/kg and 17.3 mg/kg schizandrin).The gavage administration of S. chinensis volume was 3 mL. A 200 μL blood sample was withdrawn from the right jugular vein […] into a heparin-rinsed vial at 5, 15, 30, 45, 60, 90, 120, 150, 180, 240, 360 and 480 min. Blood samples were centrifuged at 6000× g for 10 min at 4 °C. The biological samples were stored at −20 °C before analysis.
Each blood sample (50 μL) was mixed with 1 mL of ethyl acetate and vortexed for 5 min. The mixture was centrifuged at 16000× g for 10 min at 4 °C. The supernatant (1 mL) was transferred to an Eppendorf vial and dried at 40 °C in a centrifugation evaporator. The dried sample was reconstituted in 190 μL of methanol and IS solution (methyl yellow, 5 ng/mL in methanol) and filtered through a 0.22 μm filter. Finally, the filtrate (10 μL) was applied to the UPLC-MS/MS system for analysis.
The LC–MS/MS analysis was performed using a Waters Acquity UPLC™ system (Waters Co., Manchester, UK) consisting of binary solvent manager, an automatic liquid chromatographic sampler and a Waters Xevo^TM tandem quadrupole mass spectrometry equipped with an electrospray ionization (ESI) source. The chromatography was performed on a Purospher® STAR RP-18 endcapped (100 mm × 2.1 mm, 2 μm, Merck KGaA, Darmstadt, Germany) analytical column and maintained at 40 °C in a column oven. The mobile phase consisted of 0.1% formic acid-methanol (15:85, v/v), and the flow rate was set at 0.2 mL/min. The injection volume was 10 μL. The positive ion mode with a multiple reaction monitor (MRM) was used for UPLC-MS/MS analysis. The following precursor-to-product ion transitions were used: m/z 433.22→415.19 for schizandrin and m/z 226.26→76.91 for methyl yellow (internal standard, IS).The instrument parameters were optimized as follows: capillary voltage, 3.2 kV; desolvation gas, nitrogen; desolvation temperature, 400 °C; desolvation gas flow rate, 800 L/h; cone voltage, 18 V; collision energy, 12 V and source temperature, 150 °C. MassLynx 4.1 software (Waters Corporation, Milford, MA, USA) was used for data processing.
Pharmacokinetic calculations were performed on each individual set of data using the pharmacokinetic software WinNonlin Standard Edition, version 1.1 (Scientific Consulting Inc., Apex, NC, USA) by noncompartmental methods for intravenous and oral administration. The results were analyzed using Student’s t-test and the SigmaPlot program (version 13). All data are presented as the mean ± standard deviation (SD).

[4] = male, Sprague-Dawley, iv, schizandrin 10 mg/kg, rat plasma, n = 6
[5] = male, Sprague-Dawley, po, schizandrin 10 mg/kg, rat plasma, n = 6
[6] = schizandrin 10 mg/kg, p.o., rat plasma, n = 6

In the case of `COc1cc2c(c(OC)c1OC)-c1c(cc(OC)c(OC)c1OC)C[C@](C)(O)[C@@H](C)C2` [schizandrin], the “degradation in biological samples” value ([1]; autosampler 24 h at 10 °C, 12 h at room temperature, 1 month at −80 °C, three freeze-thaw cycles) is reported as “No significant degradation”, the “Autosampler Stability” value ([1]; 5 ng/mL) is reported as −1.78 ± 2.25 and the “Short-Term Stability” value ([1]; 5 ng/mL) is reported as −1.63 ± 8.36. The “Freeze-Thaw Stability” value ([1]; 5 ng/mL, three freeze-thaw cycles) was −8.04 ± 3.19, the “Long-Term Stability” value ([1]; 5 ng/mL) was −0.56 ± 0.39 and the “Autosampler Stability” value ([1]; 50 ng/mL) was 3.17 ± 3.19. For the same compound, the “Short-Term Stability” value ([1]; 50 ng/mL) was 5.70 ± 4.52, the “Freeze-Thaw Stability” value ([1]; 50 ng/mL, three freeze-thaw cycles) was −5.16 ± 3.83 and the “Long-Term Stability” value ([1]; 50 ng/mL) was −9.02 ± 0.40. For the same compound, the “Autosampler Stability” value ([1]; 500 ng/mL) was 0.43 ± 0.12, the “Short-Term Stability” value ([1]; 500 ng/mL) was 0.64 ± 0.08 and the “Freeze-Thaw Stability” value ([1]; 500 ng/mL, three freeze-thaw cycles) was −0.63 ± 0.30. The “Long-Term Stability” value ([1]; 500 ng/mL) was −6.75 ± 6.39, the “stability of stock solution” value [2] was “stable” and the concentration at 15 min ([3]; male, Sprague-Dawley, intravenous, plasma sample from jugular vein of a rat at 15 min after 10 mg/kg, i.v. (Figure 2C)) was 31.8 ng/mL. For the same compound, the AUC [3, 4] was 718 ng·h/mL, the MRT [3, 4] was 34.8 min and the clearance [3, 4] was 240 ± 30 mL/min/kg. The half-life [3, 4] was 42.2 ± 14.8 min, the clearance ([3]; male, Sprague-Dawley, plasma, schizandrin intravenous group (10 mg/kg), rat) was 90 mL/min and the AUC [3, 5] was 112 ng·h/mL. For the same compound, the Cmax [3, 5] was 60 ± 30 ng/mL, the MRT [3, 5] was 113 min and the half-life [3, 5] was 74.7 ± 33.6 min. For the same compound, the bioavailability ([3]; male, Sprague-Dawley, rat, plasma, oral, 10 mg/kg, schizandrin 10 mg/kg, p.o. vs 10 mg/kg i.v., rat, read-out: F (bioavailability)) was roughly 15.6%, the Tmax ([3]; male, Sprague-Dawley, rat, plasma, po, 10 mg/kg, schizandrin 10 mg/kg, p.o., rat plasma, n = 6, read-out: Tmax) was no more than 30 min and the clearance (CL) ([3]; schizandrin 10 mg/kg orally, rat) was 340 ± 1240 mL/min/kg. For the same compound, the CL [3, 6] was 340 ± 1240 mL/min/kg and the Tmax [3, 6] was 22.50 ± 12.55 min.
